These are literature values, as cited in PMC9516332 (Frontiers in Oncology, 2022).

In series [1] the target is T1, panel of 255 wild-type kinases (Homo sapiens, UniProt P54762).
T1 sequence (P54762 18-984): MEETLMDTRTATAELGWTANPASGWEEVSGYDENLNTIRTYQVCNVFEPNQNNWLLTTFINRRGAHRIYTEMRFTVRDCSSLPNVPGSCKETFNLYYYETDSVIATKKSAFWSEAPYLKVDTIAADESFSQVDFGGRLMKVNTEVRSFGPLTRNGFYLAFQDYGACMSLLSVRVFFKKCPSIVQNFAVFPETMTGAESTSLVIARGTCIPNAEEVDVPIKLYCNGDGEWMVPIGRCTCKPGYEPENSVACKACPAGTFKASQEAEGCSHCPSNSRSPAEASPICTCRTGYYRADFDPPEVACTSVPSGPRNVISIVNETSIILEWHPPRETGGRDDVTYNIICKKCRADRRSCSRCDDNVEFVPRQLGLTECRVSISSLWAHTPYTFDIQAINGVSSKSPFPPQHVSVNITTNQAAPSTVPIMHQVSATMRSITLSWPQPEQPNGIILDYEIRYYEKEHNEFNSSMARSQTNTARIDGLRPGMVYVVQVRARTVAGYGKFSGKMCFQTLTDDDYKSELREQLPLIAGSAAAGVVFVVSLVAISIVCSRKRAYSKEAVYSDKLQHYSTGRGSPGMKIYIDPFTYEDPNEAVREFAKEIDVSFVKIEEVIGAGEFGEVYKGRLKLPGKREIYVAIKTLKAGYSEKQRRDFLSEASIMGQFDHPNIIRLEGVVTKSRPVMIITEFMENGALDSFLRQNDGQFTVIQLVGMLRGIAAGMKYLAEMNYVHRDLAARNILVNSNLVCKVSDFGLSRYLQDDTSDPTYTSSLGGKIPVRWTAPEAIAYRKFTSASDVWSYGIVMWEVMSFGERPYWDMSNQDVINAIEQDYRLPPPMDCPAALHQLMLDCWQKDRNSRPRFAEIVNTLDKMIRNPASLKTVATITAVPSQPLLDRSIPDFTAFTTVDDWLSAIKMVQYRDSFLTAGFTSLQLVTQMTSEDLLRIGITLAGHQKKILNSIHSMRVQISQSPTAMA
The note with it: kinase EPHB1; 1 µmol/L single concentration; ref DOI: 10.1371/journal.pone.0092146; cited from earlier work.

Series [2] concerns the target T2, panel of 255 wild-type kinases (Homo sapiens, UniProt Q13237).
T2 sequence (Q13237 1-762): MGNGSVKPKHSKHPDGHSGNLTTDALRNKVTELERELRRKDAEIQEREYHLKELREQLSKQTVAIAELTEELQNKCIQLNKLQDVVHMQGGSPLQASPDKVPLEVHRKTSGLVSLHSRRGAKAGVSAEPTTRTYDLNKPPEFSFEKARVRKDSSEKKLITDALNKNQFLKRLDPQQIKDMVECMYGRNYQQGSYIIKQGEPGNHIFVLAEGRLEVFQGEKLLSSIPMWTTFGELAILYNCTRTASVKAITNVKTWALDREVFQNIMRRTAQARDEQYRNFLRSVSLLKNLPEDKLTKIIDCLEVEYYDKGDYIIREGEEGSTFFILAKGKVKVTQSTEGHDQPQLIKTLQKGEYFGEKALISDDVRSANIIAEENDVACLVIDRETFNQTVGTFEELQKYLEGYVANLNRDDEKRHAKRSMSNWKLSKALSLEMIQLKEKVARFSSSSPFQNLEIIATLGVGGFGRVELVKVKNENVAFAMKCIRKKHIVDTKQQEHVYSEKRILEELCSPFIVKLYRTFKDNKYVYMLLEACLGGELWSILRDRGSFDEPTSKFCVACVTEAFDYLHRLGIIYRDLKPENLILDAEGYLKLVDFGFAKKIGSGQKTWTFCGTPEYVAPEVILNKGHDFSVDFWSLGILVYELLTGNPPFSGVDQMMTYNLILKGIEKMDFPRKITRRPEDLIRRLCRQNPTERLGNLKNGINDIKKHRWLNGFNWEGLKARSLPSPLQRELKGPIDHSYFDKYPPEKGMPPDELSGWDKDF
The note with it: CGK2 kinase assay; 1 µmol/L single concentration; ref DOI: 10.1371/journal.pone.0092146; cited from earlier work.

Series [3] addresses panel of 255 wild-type kinases (Homo sapiens, UniProt Q13464). Particulars: kinase ROCK1; 1 µmol/L single concentration; ref DOI: 10.1371/journal.pone.0092146; cited from earlier work.
The target in series [4] is panel of 255 wild-type kinases (Homo sapiens, UniProt P54756). Particulars: kinase EPHA5; 1 µmol/L single concentration; ref DOI: 10.1371/journal.pone.0092146; cited from earlier work.
Series [5] addresses panel of 255 wild-type kinases (Homo sapiens, UniProt O95819). The note with it: kinase HGK; 1 µmol/L single concentration; ref DOI: 10.1371/journal.pone.0092146; cited from earlier work.
Series [6] addresses panel of 255 wild-type kinases (Homo sapiens, UniProt P49840). Particulars: kinase GSK3α; 1 µmol/L single concentration; ref DOI: 10.1371/journal.pone.0092146; cited from earlier work.
The target of series [7] is panel of 255 wild-type kinases (Homo sapiens, UniProt P16591). The note with it: kinase FER; 1 µmol/L single concentration; ref DOI: 10.1371/journal.pone.0092146; cited from earlier work.
Series [8] addresses T3, panel of 255 wild-type kinases (Homo sapiens, UniProt Q8IW41).
T3 sequence (Q8IW41 1-473): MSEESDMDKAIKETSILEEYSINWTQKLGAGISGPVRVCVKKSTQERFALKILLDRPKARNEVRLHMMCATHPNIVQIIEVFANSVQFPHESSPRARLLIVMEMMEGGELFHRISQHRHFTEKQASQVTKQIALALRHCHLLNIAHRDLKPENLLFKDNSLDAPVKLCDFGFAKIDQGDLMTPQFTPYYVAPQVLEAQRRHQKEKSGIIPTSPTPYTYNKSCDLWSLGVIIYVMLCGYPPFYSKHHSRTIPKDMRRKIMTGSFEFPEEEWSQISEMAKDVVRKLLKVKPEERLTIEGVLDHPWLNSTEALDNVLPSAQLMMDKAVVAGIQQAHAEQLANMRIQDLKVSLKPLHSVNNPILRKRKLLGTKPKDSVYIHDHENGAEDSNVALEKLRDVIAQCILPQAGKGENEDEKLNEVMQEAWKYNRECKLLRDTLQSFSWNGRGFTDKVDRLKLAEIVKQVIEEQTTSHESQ
The note with it: MAPKAPK5; 1 µmol/L single concentration; ref DOI: 10.1371/journal.pone.0092146; cited from earlier work.

`CC(=O)Nc1cccc(-n2c(=O)n(C3CC3)c(=O)c3c(Nc4ccc(I)cc4F)n(C)c(=O)c(C)c32)c1` [trametinib]: in series [1], the “%-inhibition at 1 µmol/L, EPHB1” value was -8%. Further, the “%-inhibition CGK2” value in series [2] was -2.61%. In series [3], the “%-inhibition at 1 µmol/L, ROCK1” value is 3.21%. In addition, the “%-inhibition at 1 µmol/L, EPHA5” value in series [4] is reported as -2.67%. In addition, the “%-inhibition at 1 µmol/L, HGK” value in series [5] is listed as -3.71%. Moreover, the “%-inhibition at 1 µmol/L, GSK3α” value in series [6] is reported as 1.59%. In series [7], the “%-inhibition at 1 µmol/L, FER” value is 4.28%. Besides, in series [8], the “%-inhibition, MAPKAPK5” value is recorded as -2.22%.
Take `CCCS(=O)(=O)Nc1ccc(F)c(C(=O)c2c[nH]c3ncc(-c4ccc(Cl)cc4)cc23)c1F` [vemurafenib]: the “%-inhibition at 1 µmol/L, EPHB1” value in series [1] is on record as -1.63%. Moreover, the “%-inhibition CGK2” value in series [2] is -2.26%. Besides, the “%-inhibition at 1 µmol/L, ROCK1” value in series [3] is on record as 1.28%. Besides, the “%-inhibition at 1 µmol/L, EPHA5” value in series [4] is 14%. In addition, the “%-inhibition at 1 µmol/L, HGK” value in series [5] is given as 26%. The “%-inhibition at 1 µmol/L, GSK3α” value in series [6] was 25%. For the same compound, the “%-inhibition at 1 µmol/L, FER” value in series [7] was 11%. In series [8], the “%-inhibition, MAPKAPK5” value is 12%.
